Results as given in patent publication EP0348509B1, “ANTI-RETROVIRAL DRUG” (TSUMURA & CO., priority 1987, dated 1989).
In brackets after ≈: the same amount, converted by molar mass.

Key:
[1] = intravenous administration; species not given; cited from earlier work
[2] = system: HTLV-1; test: HTLV-1 production by MT-2 cells (RNA hybridization with 32P-labelled HTLV-1 cDNA); assay type: cell-based; conditions: 4 days, compared with control
Experimental: The test substance and 1 x 10⁵ cells per well of MT-2 cells were charged in a 24-well microplate, and culturing was conducted for 4 days. Then the MT-2 cell suspension in each well was subjected to centrifugal separation, and the supernatant was extracted with phenol to obtain RNA of HTLV-1. This RNA and a known amount of HTLV-1 cDNA were plotted on a nitrocellulose paper, a comparative determination was carried out according to the hybridization using ³²P-labelled HTLV-1 cDNA, and the hydridization rate by the test substance was calculated by comparing the amount of the produced virus with that of the control.
The results are shown as the hybridization rate (%) in Table 7.

[3] = system: RSV. SR-A strain; test: Focus formation by RSV in primary chicken embryo fibroblasts; assay type: cell-based; conditions: Rous sarcoma virus, Fibroblast, 192 h, number of foci, 8 days, read-out: IC₅₀
Experimental: A 24-well microplate was charged with 3.5 x 10⁵ cells per well of primary chicken embryo fibroblasts, and the fibroblasts were cultured at 37°C in an atmospher of 5% CO₂ for 6 hours. Then an RSV. SR-A strain having an infection multiplicity (M.O.I.) of about 2.0 x 10⁻⁴ and the test substance were added, and culturing was continued for further 2 hours. The cells were washed and the test substance and an agar culture medium were added, and then culturing was continued at 37°C in an atmospher of 5% CO₂ for further 8 days. The number of foci was counted, and the results are shown as IC₅₀ in Table 6.

[4] = system: male rats of the Wistar line; test: Acute toxicity by oral administration, rats; assay type: in vivo; conditions: dose of 1 g/kg
[5] = system: male mice of the ddY line; test: Acute toxicity by oral administration, mice; assay type: in vivo; conditions: dose of 1 g/kg
[6] = system: HIV; test: Inhibition of modification of HIV-infected MT-2 cells (living cell count after 1 week); assay type: cell-based; conditions: 5 µg/ml added; MT-2 cells infected with HIV; living cells counted after 1 week
Experimental: MT-2 cells were cultured at a concentration of 3 x 10⁴ cells/ml in a culture medium of RPMI 1640 (supplied by Gibco Co.) containing 10% FCS (supplied by Gibco Co.). After 2 days, the MT-2 cells were infected with HIV at a ratio of 200 cells per HIV, were distributed into groups to which 5 µg/ml of baicalein, quercetin or hesperetin was added and non-added groups (control groups), and the effect of the addition was determined.

[7] = system: Reverse transcriptase; test: Inhibition of reverse transcriptase activity ([3H]dTTP incorporation into acid-insoluble fraction)
Experimental: OF TOKYO PRESS TOKYO/KARGER, BASEL, pp. 603-605 (1975)], and then a reaction mixture liquid having the following composition was prepared.
By "1 unit" is meant the unit of the relative activity of the reverse transcriptase required to consume 1 nmol of dNTP (deoxynucleic acid phosphate at 37°C for 1 hour.
Then the dry extract powder obtained in the above-mentioned Specific Example, baicalein, baicalin, quercetin or hesperetin and refined water were added to 20 ml of the above-mentioned reaction mixture liquid so that the total volume was 50 µl, the incorporation of the radioactivity of [³H]dTTP into the acid-insoluble fraction was measured by a Beckmann scintillation counter, and the percent inhibition was calculated as the reverse transcriptase activity with respect to each concentration.

Row | SMILES | acute toxicity (death) [4] | acute toxicity (death) [5] | modification of MT-2 cells with HIV was inhibited at a ratio [6] | Percent inhibition (%) ([7]; concentration 1 µg/ml) | Percent inhibition (%) ([7]; concentration 2 µg/ml) | Percent inhibition (%) ([7]; concentration 5 µg/ml) | Percent inhibition (%) ([7]; concentration 10 µg/ml) | Percent inhibition (%) ([7]; concentration 20 µg/ml) | other results
1 | O=C1c2ccccc2C(=O)c2c1cc(S(=O)(=O)O)c(O)c2O [Alizarine Red S] |  |  |  |  |  |  |  |  | LD₅₀ [1]: 70 mg/kg; Hybridization Rate (%) ([2]; Amount Added 20 µg/ml): 61.7%; IC50 [3]: 2.1 µg/mL (≈ 6.56 µM)
2 | O=C(O)CN(CC(=O)O)Cc1cc2c(c(O)c1O)C(=O)c1ccccc1C2=O [alizarin complexon] |  |  |  |  |  |  |  |  | IC50 [3]: 4.3 µg/mL
3 | O=C1c2ccccc2C(=O)c2c1ccc(O)c2O [alizarin, 1,2-dihydroxyanthraquinone] |  |  |  |  |  |  |  |  | LD₅₀ [1]: 120 mg/kg
4 | O=c1cc(-c2ccccc2)oc2cc(O)c(O)c(O)c12 [baicalein] | no animal died | no animal died | at least 90% | 92% | 98% | 100% | 100% | 100% | Percent inhibition (%) ([7]; concentration 0.1 µg/ml): 29%; Percent inhibition (%) ([7]; concentration 0.2 µg/ml): 35%; Percent inhibition (%) ([7]; concentration 0.5 µg/ml): 74%
5 | O=C(O)[C@H]1O[C@@H](Oc2cc3oc(-c4ccccc4)cc(=O)c3c(O)c2O)[C@H](O)[C@@H](O)[C@@H]1O [baicalin] | no animal died | no animal died |  | 19% | 27% | 73% | 90% | 100% | 
6 | COc1ccc([C@@H]2CC(=O)c3c(O)cc(O)cc3O2)cc1O [hesperetin] | no animal died | no animal died | at least 90% | 99% | 100% | 100% | 100% | 100% | Percent inhibition (%) ([7]; concentration 50 µg/ml): 100%
7 | O=C1c2ccccc2C(=O)c2c(O)c(O)cc(O)c21 [purpurin] |  |  |  |  |  |  |  |  | Hybridization Rate (%) ([2]; Amount Added 5 µg/ml): 61.3%
8 | O=c1c(O)c(-c2ccc(O)c(O)c2)oc2cc(O)cc(O)c12 [quercetin] | no animal died | no animal died | at least 90% | 77% | 96% | 99% | 100% | 100% | Percent inhibition (%) ([7]; concentration 50 µg/ml): 100%
